From patent publication US8669257B2, “Phenazine derivatives and uses thereof as potassium channel modulators” (The Johns Hopkins University, priority 2007, dated 2014)
“Also recorded” adds a separate entry of the source. Like-named read-outs stand apart in the source and are kept apart here.

Columns and labels:
[1] = test system: IL-2 production in Jurkat T-cells; experiment: IL-2 secreted from stimulated Jurkat T-cells (ELISA); assay type: cell-based; conditions: Homo sapiens; PMA/thapsigargin-stimulated Jurkat T-cells, FIG. 1B, n=6
Procedure: Jurkat E6.1 T-cells (1×10^5 in 180 μl) were seeded into 96-well plates. Cells in each well were treated with different concentrations of clofazimine for 1 h before 1 μM ionomycin and 40 nM PMA were added. The incubation was continued for 2 days. The plates were centrifuged at 1,200×g for 5 min, and the supernatant from each well was collected followed by ELISA detection of IL-2. The primary antibody, biotinylated secondary antibody and HRP conjugated avidin were purchase from BD/Pharmingen.

AP-1 luciferase reporter = AP-1 luciferase reporter assay in Jurkat T-cells; assay type: cell-based, human; conditions: PMA/ionomycin, high concentrations (>1 μM for clofazimine)
[2] = target: T1, calcineurin-NFATc2 interaction (Homo sapiens, UniProt P16298+Q13469, H160N); experiment: Mammalian two-hybrid assay of calcineurin and NFATc2 in Jurkat T-cells; assay type: cell-based
T1 construct: calcineurinA (1-400, H160N) and NFATc2 (1-415) in Jurkat T-cells; expressed in transfected cells; host or cells: Jurkat T-cells

[3] = test system: calcium influx in Jurkat T-cells; experiment: Calcium imaging assay: store-depletion induced calcium influx in Jurkat T-cells; assay type: cell-based, human; conditions: thapsigargin then 2 mM Ca2+; clofazimine preincubated 5 min
Procedure: JurkaT-cells were attached to L-lysine-coated glass dishes (MatTek). Cells were loaded with fura-2-AM (Invitrogen_F-1201) for 45 min before they were washed sequentially with growth medium and Ca^2+-free HBSS. Fluorescence excitation wavelengths were set at 350 and 380 nm, respectively, on a Zeiss Axiovert 200M microscope while emission wavelength was set at 510 nm. Changes in intracellular calcium concentrations were determined by fluorescence intensity ratio ([…]/F380).

[4] = test system: CRAC channel (CRACM1, CRACM2, CRACM3 with STIM1); experiment: Patch-clamp of reconstituted CRAC current in HEK293 cells; assay type: cell-based; conditions: CRACM1, CRACM2 or CRACM3 with STIM1 in HEK293 cells
Procedure: (§1) Patch pipettes, pulled from glass capillaries (inner diameter 1.5 mm, Kimble products) with a horizontal puller (Sutter instruments, Modell P-97), were fire-polished, and had resistances between 2 and 4 MOhm. Patch-clamp experiments were performed in the tight-seal whole-cell configuration at room temperature (22-24° C.). High-resolution current recordings were acquired by a computer-based patch-clamp amplifier system (EPC-9, HEKA). Immediately following establishment of the whole-cell configuration, every two seconds voltage ramps of 50 ms duration spanning the voltage range of −100 to +100 mV for Jurkat T-cells and −150 to +150 mV for HEK293 were delivered from a holding potential (Vh) of −70 mV for Jurkats and 0 mV for HEK293 cells over a period of 300-600 s. […] Capacitive currents and series resistance were determined and corrected before each voltage ramp using the automatic capacitance compensation of the EPC-9. […] Kv1.3 currents in Jurkat T-cells were measured at +80 mV. Heterologously expressed Kv1.1, Kv1.2, Kv1.3, Kv1.5 and Kv3.1 were assessed at +80 mV except in Figure S7, where currents were additionally measured at the more physiological voltage of 0 mV. CRAC currents in HEK293 cells were assessed at −80 mV. […]

mouse Kv1.1 = target: T2, mouse Kv1.1 (Mus musculus, UniProt P16388); experiment: Patch-clamp of mouse Kv1.1 stably expressed in L929 cells; assay type: cell-based
T2 construct: expressed in transfected cells; host or cells: L929 cells
Procedure: as §1

rat Kv1.2 = target: T3, rat Kv1.2 (Rattus norvegicus, UniProt P63142); experiment: Patch-clamp of heterologous rat Kv1.2 expressed in B82 cells; assay type: cell-based
T3 construct: expressed in transfected cells; host or cells: B82 cells
Procedure: as §1

Kv1.3 = target: T4, Kv1.3 (Homo sapiens, UniProt P22001); experiment: Immunofluorescence colocalization in Jurkat T-cells; assay type: cell-based; conditions: plasma membrane of Jurkat T-cells
T4 construct: endogenous in cells; host or cells: Jurkat T-cells
Procedure: Jurkat T-cells treated with clofazimine were centrifuged onto L-lysine-coated coverslips. Cells were fixed with 4% p-formaldehyde for 15 min. The cells were washed in PBS, permeabilized by −20° C. methanol and blocked with 10% donkey serum in PBS. The fixed cells were then incubated with Kv1.3 primary antibody (sc-17239 at 1:100 dilution) for 1 h. Cells were washed in PBS (3×5 min) and incubated with donkey anti-goat Cy5 antibodies for an additional 1 h. Cells were then washed three times in PBS, mounted, and photographed. Mounting was performed using Vectashield mounting medium (Vector Laboratories) and images were captured using either a Zeiss LSM510 confocal microscope. Merged images were compiled using LSM5 Image Examiner or Adobe Photoshop CS.

[5] = test system: IL-2 proximal promoter driven-luciferase; experiment: IL-2 luciferase reporter assay in Jurkat T-cells (PMA/ionomycin); assay type: cell-based, human; conditions: for IC50: n=6

T2 sequence (P16388 whole entry): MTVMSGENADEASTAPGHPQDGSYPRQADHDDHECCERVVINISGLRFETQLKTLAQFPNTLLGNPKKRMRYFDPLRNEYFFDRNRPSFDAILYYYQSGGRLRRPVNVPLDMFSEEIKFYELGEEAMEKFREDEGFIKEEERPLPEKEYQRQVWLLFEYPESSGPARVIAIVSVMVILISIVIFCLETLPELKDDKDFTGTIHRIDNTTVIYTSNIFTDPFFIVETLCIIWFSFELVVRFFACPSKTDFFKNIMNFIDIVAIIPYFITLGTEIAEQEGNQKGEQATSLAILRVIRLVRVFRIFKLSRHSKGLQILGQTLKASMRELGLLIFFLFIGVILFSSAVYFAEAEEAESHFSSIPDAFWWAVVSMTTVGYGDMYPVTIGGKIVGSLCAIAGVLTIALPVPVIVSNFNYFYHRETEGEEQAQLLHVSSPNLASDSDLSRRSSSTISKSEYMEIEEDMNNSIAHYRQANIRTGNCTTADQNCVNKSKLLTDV
T1 sequence (Q13469 1-415): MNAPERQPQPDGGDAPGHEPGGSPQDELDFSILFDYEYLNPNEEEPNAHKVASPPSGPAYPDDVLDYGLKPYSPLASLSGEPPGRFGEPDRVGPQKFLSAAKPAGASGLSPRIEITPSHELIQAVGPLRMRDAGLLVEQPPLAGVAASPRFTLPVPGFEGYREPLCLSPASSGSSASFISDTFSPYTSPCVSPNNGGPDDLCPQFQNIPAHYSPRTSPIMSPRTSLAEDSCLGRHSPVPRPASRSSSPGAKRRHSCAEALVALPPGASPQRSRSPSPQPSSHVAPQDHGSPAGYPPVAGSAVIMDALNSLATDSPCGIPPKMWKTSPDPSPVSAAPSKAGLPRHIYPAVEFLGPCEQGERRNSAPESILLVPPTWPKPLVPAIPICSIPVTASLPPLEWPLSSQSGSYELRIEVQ
T3 sequence (P63142 whole entry): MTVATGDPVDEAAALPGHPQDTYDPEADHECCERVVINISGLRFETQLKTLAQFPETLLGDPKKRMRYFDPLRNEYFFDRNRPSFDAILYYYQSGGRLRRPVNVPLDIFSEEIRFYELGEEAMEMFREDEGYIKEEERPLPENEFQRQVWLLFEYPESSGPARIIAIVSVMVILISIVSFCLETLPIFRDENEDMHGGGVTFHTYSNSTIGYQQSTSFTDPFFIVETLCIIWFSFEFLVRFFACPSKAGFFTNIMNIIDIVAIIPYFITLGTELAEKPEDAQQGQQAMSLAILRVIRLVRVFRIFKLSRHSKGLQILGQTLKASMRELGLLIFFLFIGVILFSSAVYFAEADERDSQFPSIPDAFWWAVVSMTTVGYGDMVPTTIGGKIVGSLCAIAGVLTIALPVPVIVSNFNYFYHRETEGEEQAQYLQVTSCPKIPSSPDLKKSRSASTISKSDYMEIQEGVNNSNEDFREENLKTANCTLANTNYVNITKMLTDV
T4 sequence (P22001 whole entry): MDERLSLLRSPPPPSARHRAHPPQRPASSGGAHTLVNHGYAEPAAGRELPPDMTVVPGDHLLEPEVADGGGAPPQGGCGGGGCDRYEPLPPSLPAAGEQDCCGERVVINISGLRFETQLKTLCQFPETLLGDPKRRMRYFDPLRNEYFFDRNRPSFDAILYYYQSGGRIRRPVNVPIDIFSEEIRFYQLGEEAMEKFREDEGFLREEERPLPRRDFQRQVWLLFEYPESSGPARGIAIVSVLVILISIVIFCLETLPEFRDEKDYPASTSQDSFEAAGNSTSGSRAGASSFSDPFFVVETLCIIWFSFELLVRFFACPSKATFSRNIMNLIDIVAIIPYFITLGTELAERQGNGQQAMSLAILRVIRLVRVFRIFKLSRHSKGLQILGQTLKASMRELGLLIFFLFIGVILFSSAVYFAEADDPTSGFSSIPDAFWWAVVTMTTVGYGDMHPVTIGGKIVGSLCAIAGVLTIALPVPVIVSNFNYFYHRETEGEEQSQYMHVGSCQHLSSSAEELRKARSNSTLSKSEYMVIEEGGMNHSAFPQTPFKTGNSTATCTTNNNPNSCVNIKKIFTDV

CC(C)/N=c1\cc2n(-c3ccc(Cl)cc3)c3ccccc3nc-2cc1Nc1ccc(Cl)cc1 [clofazimine, Clofazimine]
IC50 [1]: 1100 ± 260 nM
effect on AP-1 luciferase reporter (AP-1 luciferase reporter): enhanced, rather than inhibited
effect on AP-1 luciferase reporter (AP-1 luciferase reporter; listed as Clofazimine): significantly enhances
effect on calcium-dependent NFAT-calcineurin interaction [2]: inhibited the calcium-dependent NFAT-calcineurin interaction in a dose-dependent manner
effect on calcium-dependent NFAT-calcineurin interaction ([2]; listed as Clofazimine): inhibits the calcium-dependent enhancement
effect on calcium entry [3]: inhibited by clofazimine in a heterogeneous fashion; also recorded: only about a quarter of cells are responsive
effect on reconstituted CRAC current [4]: no effects
effect on reconstituted CRAC current ([4]; listed as Clofazimine): without affecting
block of current, mouse Kv1.1 (mouse Kv1.1; 10 μM): less than 50%
IC50 (mouse Kv1.1; inferred from block at 10 μM): > 10000 nM
block of current, rat Kv1.2 (rat Kv1.2; 10 μM): less than 50%
IC50 (rat Kv1.2; inferred from block at 10 μM): > 10000 nM
subcellular localization relative to Kv1.3 (Kv1.3): same subcellular localization pattern
subcellular localization relative to Kv1.3 (Kv1.3; listed as Clofazimine): colocalizes with Kv1.3
IC50 ([5]; Homo sapiens, Jurkat, Kv1.3 overexpression low to high, 1st curve, read-out: IC50, IL-2 luciferase reporter, Kv1.3 overexpression): 41.6 ± 8.4 nM
IC50 ([5]; Homo sapiens, Jurkat, Kv1.3 overexpression low to high, 2nd curve, read-out: IC50, IL-2 luciferase reporter, Kv1.3 overexpression): 41 ± 14.5 nM
IC50 ([5]; Homo sapiens, Jurkat, Kv1.3 overexpression low to high, 3rd curve, read-out: IC50, IL-2 luciferase reporter, Kv1.3 overexpression): 386 ± 214 nM
IC50 ([5]; Homo sapiens, Jurkat, Kv1.3 overexpression low to high, 4th curve, read-out: IC50, IL-2 luciferase reporter, Kv1.3 overexpression): 1370 ± 520 nM
IC50 ([5]; Homo sapiens, Jurkat, Kv1.3 overexpression low to high, 5th (highest) curve, read-out: IC50, IL-2 luciferase reporter, Kv1.3 overexpression): 1460 ± 630 nM
IC50 ([5]; Homo sapiens, Jurkat, PMA/ionomycin-stimulated Jurkat T-cells, FIG. 1A, read-out: IC50, IL-2 luciferase reporter): 21.8 ± 4.4 nM
IC50 ([5]; Homo sapiens, Jurkat, control EGFP-siRNA lentiviral transduced Jurkat T-cells, read-out: IC50, IL-2 luciferase reporter): 49.9 ± 13 nM
IC50 ([5]; Homo sapiens, Jurkat, shKv1.3-4 (Kv1.3 knockdown) transduced Jurkat T-cells, read-out: IC50, IL-2 luciferase reporter): 10.5 ± 2.4 nM
IC50 ([5]; Homo sapiens, Jurkat, PMA/ionomycin, FIG. 1C, read-out: IC50, IL-2 luciferase reporter): 56 ± 14.8 nM
IC50 ([5]; PMA/ionomycin-stimulated Jurkat T-cells, FIG. 1A, read-out: IC50, IL-2 luciferase reporter): 22 nM
increase in IC50 value upon Kv1.3 overexpression ([5]; highest Kv1.3 expression plasmid (2 μg)): 35 fold
decrease in IC50 values upon Kv1.3 knockdown ([5]; shKv1.3-4 vs shRNA against EGFP): ~5 fold
